Test results reported in patent publication US5985968A, “Surface tension reduction with N,N-dialkyl ureas” (Air Products and Chemicals, Inc., priority 1997, dated 1999).

Key:
Assay type in all cases: physicochemical
[1] = Dynamic surface tension of aqueous solutions, maximum-bubble-pressure method; settings: about 23° C.
From the text: This invention relates to the use of compounds of the formula [drawing 3] where R1 and R2 are independently C1 to C6 alkyl or cycloalkyl with the total number of carbons in R and R' being 6-12 for the reduction of equilibrium and dynamic surface tension in water-based formulations containing an organic compound, particularly coating, ink, and agricultural formulations. […] The maximum-bubble-pressure method of measuring surface tension is described in Langmuir 1986, 2, 428-432, which is incorporated by reference.
In the following examples dynamic surface tension data were generated for aqueous solutions of the indicated compounds using the maximum-bubble-pressure method at the indicated bubble rates, i.e., bubbles/second (b/s), and room temperature of about 23° C. The equipment used was a Kruss BP 2 bubble pressure tensiometer.
(§1) A saturated solution in distilled water of N,N'-di-n-butylurea was prepared by placing 0.1 g of the urea into 99.9 g of water and shaking the mixture for 1-2 h. […] The solids were removed by filtration, and the dynamic surface tension of the resulting solution was measured using the maximum bubble pressure method at bubble rates from 0.1 to 20 b/s. […] In practical terms, high bubble rates correspond to high printing speeds in lithographic or ink-jet printing, high spray or roller velocities in coating applications, and rapid application rates for agricultural products.
Aqueous solutions of N,N-dibutylurea were prepared and their surface tensions were measured using the procedure described above.

[2] = Foaming properties of 0.1 wt % solution, procedure based upon ASTM D 1173-53
Protocol: The foaming properties of a 0.1 wt % solution of N,N-dibutylurea, N,N-dipentyl-urea, and N,N-dihexylurea were examined using a procedure based upon ASTM D 1173-53. In this test, a 0.1 wt % solution of the surfactant is added from an elevated foam pipette to a foam receiver containing the same solution. The foam height is measured at the completion of the addition ("Initial Foam Height") and the time required for the foam to dissipate is recorded ("Time to 0 Foam"). This test provides a comparison between the foaming characteristics of various surfactant solutions. In general, in coatings, inks, and agricultural formulations, foam is undesirable because is complicates handling and can lead to coating and print defects, and to inefficient application of agricultural materials.

[3] = Solubility in water (saturated solution / solubility limit); settings: in water
Protocol: A series of aqueous solutions of various concentrations of n-octylurea [Pfaltz & Bauer] was prepared by placing the urea into water and shaking the mixture for 1-2 h. All of the urea dissolved in the low concentration samples. Undissolved urea in some of the higher concentration samples was remove by filtration. Surface tensions of these solutions were measured using the Wilheimy plate technique. This method provides equilibrium surface tension values. Equilibrium values are always equal to or lower than those obtained under dynamic conditions.
as §1
A saturated solution in distilled water of N,N-di-(2-ethylhexyl)urea was prepared by placing 0.1 g of the urea into 99.9 g of water and shaking the mixture for 1-2 h. […] The solids were removed by filtration, and the surface tension of the resulting solution was measured as described above.
Similarly, a saturated solution in distilled water of N,N-di-n-octylurea was prepared by placing 0.1 g of the urea into 99.9 g of water and shaking the mixture for 1-2 hr. […] The solids were removed by filtration, and the surface tension of the resulting solution was measured as described above.
A saturated solution in distilled water of N,N-di-n-hexylurea was prepared by placing 0.1 g of the urea into 99.9 g of water and shaking the mixture for 1-2 h. […] The solids were removed by filtration, and the surface tension of the resulting solution was measured as described above.

Substance: N,N-dipentylurea
- Dynamic Surface Tension ([1]; 0.1 wt %, 0.1 b/s): 36.3 dyne/cm
- Dynamic Surface Tension ([1]; 0.1 wt %, 1 b/s): 37.1 dyne/cm
- Dynamic Surface Tension ([1]; 0.1 wt %, 6 b/s): 38.7 dyne/cm
- Dynamic Surface Tension ([1]; 0.1 wt %, 15 b/s): 40.7 dyne/cm
- Dynamic Surface Tension ([1]; 0.1 wt %, 20 b/s): 41.3 dyne/cm
- Dynamic Surface Tension ([1]; 0.2 wt %, 0.1 b/s): 32.8 dyne/cm
- Dynamic Surface Tension ([1]; 0.2 wt %, 1 b/s): 33.4 dyne/cm
- Dynamic Surface Tension ([1]; 0.2 wt %, 6 b/s): 34.6 dyne/cm
- Dynamic Surface Tension ([1]; 0.2 wt %, 15 b/s): 36.2 dyne/cm
- Dynamic Surface Tension ([1]; 0.2 wt %, 20 b/s): 36.3 dyne/cm
- Dynamic Surface Tension ([1]; 0.3 wt %, 0.1 b/s): 30.9 dyne/cm
- Dynamic Surface Tension ([1]; 0.3 wt %, 1 b/s): 31.5 dyne/cm
- Dynamic Surface Tension ([1]; 0.3 wt %, 6 b/s): 32.4 dyne/cm
- Dynamic Surface Tension ([1]; 0.3 wt %, 15 b/s): 32.9 dyne/cm
- Dynamic Surface Tension ([1]; 0.3 wt %, 20 b/s): 33.1 dyne/cm
- Initial Foam Height [2]: 1.5 cm
- Time to 0 Foam [2]: 3 s
- solubility limit [3]: 0.3 wt %
